In paper doi:10.1101/2022.06.06.494947v1 (biorxiv, 2022):

Target: His-mASPDH (mouse ASPDH) (Mus musculus, UniProt Q9DCQ2)
Experiment: ITC, one-site model
Format: binding

His-mASPDH (mouse ASPDH), sequence (Q9DCQ2 whole entry): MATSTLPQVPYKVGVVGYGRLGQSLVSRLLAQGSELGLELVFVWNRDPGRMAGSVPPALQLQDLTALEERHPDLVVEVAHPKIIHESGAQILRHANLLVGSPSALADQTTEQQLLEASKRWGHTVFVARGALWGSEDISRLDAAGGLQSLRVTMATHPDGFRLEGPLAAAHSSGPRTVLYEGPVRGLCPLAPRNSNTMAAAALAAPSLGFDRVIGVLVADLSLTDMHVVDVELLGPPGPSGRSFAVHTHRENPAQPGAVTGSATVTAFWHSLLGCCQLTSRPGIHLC

Kd	SMILES
455 ± 231 nM	Nc1ncnc2c1ncn2[C@@H]1O[C@H](COP(=O)(O)OP(=O)(O)OC[C@H]2O[C@@H]([n+]3cccc(C(=O)O)c3)[C@H](O)[C@@H]2O)[C@@H](O)[C@H]1OP(=O)(O)O [NAADP]
958 ± 203 nM	NC(=O)c1ccc[n+]([C@@H]2O[C@H](COP(=O)(O)OP(=O)(O)OC[C@H]3O[C@@H](n4cnc5c(N)ncnc54)[C@H](OP(=O)(O)O)[C@@H]3O)[C@@H](O)[C@H]2O)c1 [NADP]
